Key:
[1] = test system: isolated polymorphonuclear neutrophils (PMNs); test: Oxidative burst assay (luminol-enhanced chemiluminescence), isolated PMNs; assay type: cell-based; conditions: Polymorphonuclear neutrophil, isolated human PMNs, zymosan, three doses 1, 10, 100 μg/mL, mean ± SD of three, read-out: Oxidative Burst Inhibition (IC50) PMNs
Text: Heparinized blood was obtained by vein puncture aseptically from healthy volunteers. The PMNs were isolated by ficoll-Hypaque density gradient method. The cells were isolated after centrifugation from the tube base. Cells were washed twice and suspended in Hank’s Balance salt solution (HBSS^--) (Ca^2+ and Mg^2+ free), RBCs were lysed using hypotonic solution. Cells were adjusted to their required concentration (1x10^6 cells/mL) using HBSS^++containing Ca^2+ and Mg^2+.
Luminol-enhanced chemiluminescence assay was performed, as described by Helfandet al., 1982 [17], with some modifications. Briefly 25 μL of diluted whole blood in HBSS^++ (Hanks Balanced Salt Solution, containing calcium chloride and magnesium chloride) [Sigma, St. Louis, USA] was incubated with 25 μL of three different concentrations of compounds (1, 10, and 100 μg/mL), each in triplicate. Control wells received HBSS^++ and cells, but no compounds. Test was performed in white half area 96-well plates [Costar, NY, USA], which was incubated at 37 °C for 15 minutes in the thermostat chamber of luminometer [Labsystems, Helsinki, Finland]. After incubation, 25 μL of serum opsonized zymosan (SOZ) [Fluka, Buchs, Switzerland] and 25 μL of intracellular reactive oxygen species detecting probe, luminol [Research Organics, Cleveland, OH, USA] were added into each well, except blank wells (containing only HBSS^++). The level of the ROS was recorded in luminometer in term of relative light units (RLU).

[2] = test system: Bacillus subtilis (ATCC 6633); test: Microplate Alamar Blue Assay, Bacillus subtilis; assay type: cell-based; conditions: ATCC6633, 200 μg/mL, NI = No inhibition, read-out: Percentage (%) Inhibition, Bacillus subtilis
Description: (§1) The anti-bacterial activity of synthesized compound were evaluated by the Microplate Alamar Blue Assay. Staphylococcus aureus (ATCC 25923), Pseudomonas aeruginosa(POA 286), Salmonella typhi (ATCC 14028), Bacillus subtilis ATCC 6633) and Escherichia coli (ATCC 12022) were used in this study as a standard bacterial strains and they were obtained from microbial bank of PCMD, International Center for Chemical and Biological Sciences, University of Karachi, Karachi-75270, Pakistan. The bacterial colonies grown in Trypton Soya Agar (TSA) (Oxoid Limited, UK) were inoculated in Mueller Hinton Broth (MHB) (Oxoid Limited, UK) and incubated overnight at 37 °C. Fully grown bacterial cultures were then diluted to adjust with 0.5 McFarland Turbidity Index (equivalent to 1.5 × 10^8 CFU/mL). Stock solutions (4 mg/mL) of different test compounds were prepared in DMSO and 10μL each of these stock solutions were placed in well of flat bottom, polystyrene, sterile 96-wells plate except the positive control wells (media + bacteria). This gives 200μg/mL concentrations of compounds in final 200 μL solution. Each compound was run in triplicates. Finally, bacterial suspension (5 x 10^6 CFU/mL) was added in each well. Plates were sealed by parafilm and incubated at 37 °C for 18–22 hrs. Next day, 20 μL of 0.02% resazurin sodium salt dye (Chem-Impex-Int’LInc) was added in each well and incubated in shaking incubator at 80 rpm, 37 °C for 2–3 hrs. The color change from blue to reddish pink indicates the growth of bacteria. For quantitative analysis, plates were read at 570 nm and 600 nm in Multiskan GOmicroplate spectrophotometer, (Thermo Scientific, USA). The % inhibition of bacterial growth was calculated using below mentioned formula.
(§2) For the calculation of the % difference in reduction between treated and control cells in cytotoxicity/proliferation assays: =(εOX)λ2Aλ1-(εOX)λ1Aλ2oftestagent/(εOX)λ2A°λ1-(εOX)λ1A°λ2ofpositivegrowthcontrol×100

[3] = test system: Staphylococcus aureus (ATCC 25923); test: Microplate Alamar Blue Assay, Staphylococcus aureus; assay type: cell-based; conditions: Staphylococcus aureus, ATCC25923; 200 μg/mL; NI = No inhibition; read-out: Percentage (%) Inhibition, Staphylococcus aureus
Description: as §1, §2

[4] = test system: Escherichia coli (ATCC 12022); test: Microplate Alamar Blue Assay, Escherichia coli; assay type: cell-based; conditions: ATCC12022, 200 μg/mL, NI = No inhibition, read-out: Percentage (%) Inhibition, Escherichia coli
Description: as §1, §2

[5] = test system: Pseudomonas aeruginosa (POA 286); test: Microplate Alamar Blue Assay, Pseudomonas aeruginosa; assay type: cell-based; conditions: Pseudomonas aeruginosa; 200 μg/mL; NI = No inhibition; read-out: Percentage (%) Inhibition, Pseudomonas aerugenosa
Description: as §1, §2

[6] = test system: Salmonella typhi (ATCC 14028); test: Microplate Alamar Blue Assay, Salmonella typhi; assay type: cell-based; conditions: Salmonella enterica; 200 μg/mL; NI = No inhibition; read-out: Percentage (%) Inhibition, Slamonella typhi
Description: as §1, §2

Compound	IC50 [1]	inhibition at 200 µg/mL [2]	inhibition at 200 µg/mL [3]	inhibition at 200 µg/mL [4]	inhibition at 200 µg/mL [5]	inhibition at 200 µg/mL [6]	melting point
Cc1cc(C)nc(NS(=O)(=O)c2ccc(NC(=O)C(Br)CBr)cc2)n1 (stereo not drawn) [Compound 3, 2,3-Dibromo-N-(4-(N-(4,6-dimethylpyrimidin-2-yl)sulfamoyl)phenyl)propanamide]	3.6 ± 0.05 µg/mL	< 0%	60%	< 0%	5.93%	< 0%	–
Cc1cc(C)nc(NS(=O)(=O)c2ccc(NC(=O)c3cccc(CCl)c3)cc2)n1 [Compound 4, 3-(Chloromethyl)-N-(4-(N-(4,6-dimethylpyrimidin-2-yl)sulfamoyl)phenyl)benzamide]	6.1 ± 0.08 µg/mL	< 0%	3.21%	< 0%	< 0%	< 0%	–
Cc1cc(C)nc(NS(=O)(=O)c2ccc(NC(=O)c3ccc(CCl)cc3)cc2)n1 [Compound 5, 4-(Chloromethyl)-N-(4-(N-(4,6-dimethylpyrimidin-2-yl)sulfamoyl)phenyl)benzamide]	3 ± 0.06 µg/mL	< 0%	35%	< 0%	< 0%	< 0%	–
Cc1cc(C)nc(NS(=O)(=O)c2ccc(NC(=O)c3cc(C(F)(F)F)cc(C(F)(F)F)c3)cc2)n1 [Compound 6, N-(4-(N-(4,6-dimethylpyrimidin-2-yl)sulfamoyl)phenyl)-3,5-bis(trifluoromethyl)benzamide]	3.4 ± 0.1 µg/mL	< 0%	32.7%	< 0%	< 0%	< 0%	–
Cc1cc(C)nc(NS(=O)(=O)c2ccc(NC(=O)c3cc(F)cc(F)c3)cc2)n1 [Compound 7, N-(4-(N-(4,6-dimethylpyrimidin-2-yl)sulfamoyl)phenyl)-3,5-difluorobenzamide]	2.9 ± 0.3 µg/mL	< 0%	54.3%	< 0%	< 0%	13.1%	237 to 240 °C
Cc1cc(C)nc(NS(=O)(=O)c2ccc(NC(=O)c3cc(F)cc(C(F)(F)F)c3)cc2)n1 [Compound 8, N-(4-(N-(4,6-dimethylpyrimidin-2-yl)sulfamoyl)phenyl)-3-fluoro-5-(trifluoromethyl)benzamide]	2.4 ± 0.07 µg/mL	< 0%	47.3%	< 0%	4.31%	29.4%	–
Cc1cc(C)nc(NS(=O)(=O)c2ccc(NC(=O)c3ccc(C(F)(F)F)c(F)c3)cc2)n1 [Compound 9, N-(4-(N-(4,6-dimethylpyrimidin-2-yl)sulfamoyl)phenyl)-3-fluoro-4-(trifluoromethyl)benzamide]	2.8 ± 0.05 µg/mL	< 0%	27.9%	< 0%	< 0%	0.94%	–
Cc1cc(C)nc(NS(=O)(=O)c2ccc(NC(=O)c3ccc(F)c(C(F)(F)F)c3)cc2)n1 [Compound 10, N-(4-(N-(4,6-dimethylpyrimidin-2-yl)sulfamoyl)phenyl)-4-fluoro-3-(trifluoromethyl)benzamide]	3.4 ± 0.4 µg/mL	< 0%	1.09%	< 0%	< 0%	< 0%	–
Cc1cc(C)nc(NS(=O)(=O)c2ccc(NC(=O)C(C)Cl)cc2)n1 (stereo not drawn) [Compound 11, 2-Chloro-N-(4-(N-(4,6-dimethylpyrimidin-2-yl)sulfamoyl)phenyl)propanamide]	6.2 ± 0.13 µg/mL	35.1%	< 0%	3.93%	26.5%	29.6%	256 to 258 °C
Cc1cc(C)nc(NS(=O)(=O)c2ccc(NC(=O)c3ccc(F)cc3)cc2)n1 [Compound 12, N-(4-(N-(4,6-dimethylpyrimidin-2-yl)sulfamoyl)phenyl)-4-fluorobenzamide]	3.3 ± 0.05 µg/mL	< 0%	49.7%	< 0%	< 0%	19%	–
Cc1cc(C)nc(NS(=O)(=O)c2ccc(NC(=O)c3cccc([N+](=O)[O-])c3)cc2)n1 [Compound 13, N-(4-(N-(4,6-dimethylpyrimidin-2-yl)sulfamoyl)phenyl)-3-nitrobenzamide]	4.9 ± 0.2 µg/mL	< 0%	34.3%	< 0%	6.58%	< 0%	251 to 253 °C
Cc1cc(C)nc(NS(=O)(=O)c2ccc(N)cc2)n1 [compound 1, Sulfamethazine, reference compound]	5.2 ± 0.05 µg/mL	< 0%	42.2%	< 0%	8.92%	< 0%	–

Reference: PMC6300282, “Sulphamethazine derivatives as immunomodulating agents: New therapeutic strategies for inflammatory diseases” (PLoS ONE, 2018)
